In US7012042B1, “Methods and products to protect against root intrusion and plant and root growth” (Growguard, LLC, Inc., priority 2002, dated 2006):

Columns and labels:
plant root = details: cited from earlier work
[1] = Solubility of Trifluralin in methacrylate plasticizer/monomers; format: physicochemical; details: in ethyl methacrylate and lauryl methacrylate
Protocol: A novel solution involving the polymerization of the plasticizer that remains within the fiber (FIG. 8) has been developed. Thus, a plasticizer is chosen that also is a monomer. It was determined that Trifluralin is quite soluble in ethyl methacrylate and lauryl methacrylate. […] Thus, technical feasibility is evident up to this point in the process.

CCCN(CCC)c1c([N+](=O)[O-])cc(C(F)(F)F)cc1[N+](=O)[O-] [Trifluralin]
concentration highly effective in preventing root elongation (plant root; 95% of the plants tested, prior efforts): 2–5 ppm
concentration required to inhibit root growth (plant root; a few of the plants tested, prior efforts): 10 ppm
concentration sufficient to inhibit root growth (plant root; in gels and water-saturated soils adjacent to a pipe leakage area): 5–10 ppm
solubility [1]: quite soluble
